Experimental findings from patent publication US10251892B2, “Bicyclic heterocycles as FGFR4 inhibitors” (Incyte Corporation, priority 2015, dated 2019) are described below.

The structures appear in SMILES notation.

For this assay, the target named is FGFR3 enzyme (Homo sapiens (Human), UniProt P22607). Briefly: FGFR Enzymatic Assay (peptide phosphorylation, FRET), FGFR3. The class given is biochemical. The note with it: IC50 ratio showing FGFR3 selectivity; pre-incubated for 4 hours. On the procedure: The inhibitor potency of the exemplified compounds was measured in an enzyme assay that measures peptide phosphorylation using FRET measurements to detect product formation. Inhibitors were serially diluted in DMSO and a volume of 0.5 μL was transferred to the wells of a 384-well plate.
Chain of FGFR3 enzyme (P22607 23-806): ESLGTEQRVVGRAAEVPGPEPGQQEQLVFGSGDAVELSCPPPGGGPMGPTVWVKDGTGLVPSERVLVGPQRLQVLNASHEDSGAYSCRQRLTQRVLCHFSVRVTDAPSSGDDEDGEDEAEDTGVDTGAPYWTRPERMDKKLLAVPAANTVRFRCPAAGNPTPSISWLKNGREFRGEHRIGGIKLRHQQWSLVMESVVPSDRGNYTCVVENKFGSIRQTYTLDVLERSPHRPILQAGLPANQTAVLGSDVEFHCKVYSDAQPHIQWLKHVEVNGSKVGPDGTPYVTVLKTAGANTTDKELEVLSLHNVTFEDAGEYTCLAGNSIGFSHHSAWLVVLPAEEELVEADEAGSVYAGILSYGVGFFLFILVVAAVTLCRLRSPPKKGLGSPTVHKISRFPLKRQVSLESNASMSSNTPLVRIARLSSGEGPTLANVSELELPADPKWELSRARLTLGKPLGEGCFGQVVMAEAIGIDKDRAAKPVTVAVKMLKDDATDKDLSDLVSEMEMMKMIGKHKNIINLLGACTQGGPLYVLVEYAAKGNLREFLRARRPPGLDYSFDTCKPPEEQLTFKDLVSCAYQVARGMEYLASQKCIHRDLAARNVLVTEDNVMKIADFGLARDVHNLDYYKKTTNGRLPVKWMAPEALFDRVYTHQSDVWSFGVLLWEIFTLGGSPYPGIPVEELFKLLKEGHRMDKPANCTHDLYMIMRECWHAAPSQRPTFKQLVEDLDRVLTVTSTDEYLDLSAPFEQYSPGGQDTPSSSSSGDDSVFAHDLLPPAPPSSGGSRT
GraphPad prism3 was used to analyze the data.
With `COc1cc(OC)c(F)c(N2Cc3cnc(-c4cn(C)nc4C)cc3N(c3ccc(F)c(F)c3)C2=O)c1F` [Example 102, 3-(2,6-difluoro-3,5-dimethoxyphenyl)-1-(3,4-difluorophenyl)-7-(1,3-dimethyl-1H-pyrazol-4-yl)-3,4-dihydropyrido[4,3-d]pyrimidin-2(1H)-one], the FGFR1/FGFR3 is above 3 and the FGFR4/FGFR3 is on record as above 10.

As for `COc1cc(OC)c(F)c(N2Cc3cnc(-c4cn(CCC5CCNCC5)nc4C)cc3C3(CC3)C2=O)c1F` [Example 165, 2′-(2,6-difluoro-3,5-dimethoxyphenyl)-6′-(3-methyl-1-(2-(piperidin-4-yl)ethyl)-1H-pyrazol-4-yl)-1′H-spiro[cyclopropane-1,4′-[2,7]naphthyridin]-3′(2′H)-one], the FGFR1/FGFR3 is listed as above 3 and the FGFR4/FGFR3 is on record as above 3.

Consider `CNC(=O)c1ccc(-c2cc3c(cn2)CN(c2c(F)c(OC)cc(OC)c2F)C(=O)C32CC2)cn1` [Example 18, 5-(2′-(2,6-difluoro-3,5-dimethoxyphenyl)-3′-oxo-2′,3′-dihydro-1′H-spiro[cyclopropane-1,4′-[2,7]naphthyridine]-6′-yl)-N-methylpicolinamide], for which the FGFR1/FGFR3 is listed as above 5.

As for `COc1cc(OC)c(F)c(N2Cc3cnc(-c4cn(CC#N)nc4C)cc3C3(CC3)C2=O)c1F` [Example 153, 2-(4-(2′-(2,6-difluoro-3,5-dimethoxyphenyl)-3′-oxo-2′,3′-dihydro-1′H-spiro[cyclopropane-1,4′-[2,7]naphthyridine]-6′-yl)-3-methyl-1H-pyrazol-1-yl)acetonitrile], the FGFR1/FGFR3 is on record as above 5 and the FGFR4/FGFR3 is recorded as above 3.

With `COc1cc(OC)c(F)c(N2Cc3cnc(-c4cn(CC(=O)N5CCOCC5)nc4C)cc3C3(CC3)C2=O)c1F` [Example 159, 2′-(2,6-difluoro-3,5-dimethoxyphenyl)-6′-(3-methyl-1-(2-morpholino-2-oxoethyl)-1H-pyrazol-4-yl)-1′H-spiro[cyclopropane-1,4′-[2,7]naphthyridin]-3′(2′H)-one], the FGFR1/FGFR3 is reported as above 5 and the FGFR4/FGFR3 is listed as above 3.

For the compound `COc1cc(OC)c(F)c(N2Cc3cnc(-c4cn(C)nc4C)cc3N(c3cc(F)cc(F)c3)C2=O)c1F` [Example 103, 3-(2,6-difluoro-3,5-dimethoxyphenyl)-1-(3,5-difluorophenyl)-7-(1,3-dimethyl-1H-pyrazol-4-yl)-3,4-dihydropyrido[4,3-d]pyrimidin-2(1H)-one], the FGFR1/FGFR3 is recorded as above 3 and the FGFR4/FGFR3 is reported as above 5.

Turning to `COc1cc(OC)c(F)c(N2Cc3cnc(-c4cn(C)nc4C)cc3N(CCc3cnn(C)c3)C2=O)c1F` [Example 114, 3-(2,6-difluoro-3,5-dimethoxyphenyl)-7-(1,3-dimethyl-1H-pyrazol-4-yl)-1-(2-(1-methyl-1H-pyrazol-4-yl)ethyl)-3,4-dihydropyrido[4,3-d]pyrimidin-2(1H)-one], the FGFR1/FGFR3 is above 3 and the FGFR4/FGFR3 is above 5.

With `CCN1C(=O)N(c2c(F)c(OC)cc(OC)c2F)Cc2cnc(-c3ccccc3)cc21` [Example 22, 3-(2,6-difluoro-3,5-dimethoxyphenyl)-1-ethyl-7-phenyl-3,4-dihydropyrido[4,3-d]pyrimidin-2(1H)-one], the FGFR1/FGFR3 is on record as above 5.

As to `COc1cc(OC)c(F)c(N2Cc3cnc(-c4csc(N(C)C)n4)cc3C3(CC3)C2=O)c1F` [Example 160, 2′-(2,6-difluoro-3,5-dimethoxyphenyl)-6′-(2-(dimethylamino)thiazol-4-yl)-1′H-spiro[cyclopropane-1,4′-[2,7]naphthyridin]-3′(2′H)-one], the FGFR1/FGFR3 is reported as above 5 and the FGFR4/FGFR3 is reported as above 5.

Turning to `COc1ccc(N2C(=O)N(c3c(F)c(OC)cc(OC)c3F)Cc3cnc(-c4cn(C)nc4C)cc32)cc1` [Example 104, 3-(2,6-difluoro-3,5-dimethoxyphenyl)-7-(1,3-dimethyl-1H-pyrazol-4-yl)-1-(4-methoxyphenyl)-3,4-dihydropyrido[4,3-d]pyrimidin-2(1H)-one], the FGFR1/FGFR3 is recorded as above 3 and the FGFR4/FGFR3 is on record as above 5.

Turning to `COc1cc(OC)c(F)c(N2Cc3cnc(-c4cn(C)nc4C)cc3N(c3ccc(-c4nnc(C)o4)cc3)C2=O)c1F` [Example 115, 3-(2,6-difluoro-3,5-dimethoxyphenyl)-7-(1,3-dimethyl-1H-pyrazol-4-yl)-1-(4-(5-methyl-1,3,4-oxadiazol-2-yl)phenyl)-3,4-dihydropyrido[4,3-d]pyrimidin-2(1H)-one], the FGFR1/FGFR3 is listed as above 3 and the FGFR4/FGFR3 is above 5.

`COc1cc(N2C(=O)N(c3c(F)c(OC)cc(OC)c3F)Cc3cnc(-c4cn(C)nc4C)cc32)ccc1C#N` [Example 81, 4-(3-(2,6-difluoro-3,5-dimethoxyphenyl)-7-(1,3-dimethyl-1H-pyrazol-4-yl)-2-oxo-3,4-dihydropyrido[4,3-d]pyrimidin-1(2H)-yl)-2-methoxybenzonitrile]: the FGFR1/FGFR3 was above 5 and the FGFR4/FGFR3 is on record as above 10.

Regarding `CCN1C(=O)N(c2c(F)c(OC)cc(OC)c2F)Cc2cnc(-c3ccc(N4CCOCC4)nc3)cc21` [Example 182, 3-(2,6-difluoro-3,5-dimethoxyphenyl)-1-ethyl-7-(6-morpholinopyridin-3-yl)-3,4-dihydropyrido[4,3-d]pyrimidin-2(1H)-one], the FGFR1/FGFR3 was above 5 and the FGFR4/FGFR3 is above 5.

Regarding `COc1cc(OC)c(F)c(N2Cc3cnc(-c4cn(C)nc4C)cc3N(Cc3ccncc3)C2=O)c1F` [Example 69, 3-(2,6-difluoro-3,5-dimethoxyphenyl)-7-(1,3-dimethyl-1H-pyrazol-4-yl)-1-(pyridin-4-ylmethyl)-3,4-dihydropyrido[4,3-d]pyrimidin-2(1H)-one], the FGFR1/FGFR3 is reported as above 5 and the FGFR4/FGFR3 is above 5.

For `COc1cc(OC)c(F)c(N2Cc3cnc(-c4cn(C)nc4C)cc3N(CC3CCOCC3)C2=O)c1F` [Example 37, 3-(2,6-difluoro-3,5-dimethoxyphenyl)-7-(1,3-dimethyl-1H-pyrazol-4-yl)-1-((tetrahydro-2H-pyran-4-yl)methyl)-3,4-dihydropyrido[4,3-d]pyrimidin-2(1H)-one], the FGFR1/FGFR3 is given as above 1 and the FGFR4/FGFR3 is reported as above 10.

As to `COc1cc(OC)c(F)c(N2Cc3cnc(-c4cn(CCCN5CCOCC5)nc4C)cc3C3(CC3)C2=O)c1F` [Example 146, 2′-(2,6-difluoro-3,5-dimethoxyphenyl)-6′-(3-methyl-1-(3-morpholinopropyl)-1H-pyrazol-4-yl)-1′H-spiro[cyclopropane-1,4′-[2,7]naphthyridin]-3′(2′H)-one], the FGFR1/FGFR3 was above 10 and the FGFR4/FGFR3 is recorded as above 5.

Turning to `COc1cc(OC)c(F)c(N2Cc3cnc(-c4cn(C)nc4C)cc3N(Cc3cnn(CC#N)c3)C2=O)c1F` [Example 125, 2-(4-((3-(2,6-difluoro-3,5-dimethoxyphenyl)-7-(1,3-dimethyl-1H-pyrazol-4-yl)-2-oxo-3,4-dihydropyrido[4,3-d]pyrimidin-1(2H)-yl)methyl)-1H-pyrazol-1-yl)acetonitrile], the FGFR1/FGFR3 is reported as above 5 and the FGFR4/FGFR3 was above 5.

In the case of `CCN1C(=O)N(c2c(F)c(OC)cc(OC)c2F)Cc2cnc(-c3ccc(C(C)(C)C#N)nc3)cc21` [Example 26, 2-(5-(3-(2,6-difluoro-3,5-dimethoxyphenyl)-1-ethyl-2-oxo-1,2,3,4-tetrahydropyrido[4,3-d]pyrimidin-7-yl)pyridin-2-yl)-2-methylpropanenitrile], the FGFR1/FGFR3 is recorded as above 5 and the FGFR4/FGFR3 is given as above 5.
